Test results reported in US11166924B2, “N-methyl-d-aspartate receptor allosteric modulators and methods for their use” (Qingdao Primedicine Pharmaceutical Company, Ltd., priority 2016, dated 2021).

Tests used:
Format in all cases: cell-based
AMPAR = experiment: AMPA-induced currents in cultured hippocampal neurons
Experimental: Whole cell patch-clamp recordings were performed under voltage-clamp mode using an Axopatch 200B or 1D patch-clamp amplifier (Molecular Devices). Whole-cell currents were recorded at a holding potential of −60 mV unless indicated elsewhere, and signals were filtered at 2 kHz, digitized at 10 kHz (Digidata 1322A). Recording pipettes (3-5 MΩ) were filled with the intracellular solution that contained (mM): CsCl 140, HEPES 10, Mg-ATP 4, QX-314 5, pH 7.20; osmolarity, 290-295 mOsm. BAPTA (10 mM) was added in the intracellular solution (otherwise specified). The coverslips were continuously superfused with the extracellular solution containing (mM): NaCl 140, KCl 5.4, HEPES 10, CaCl2 1.3, glucose 20, pH 7.4; osmolarity, 305-315 mOsm. NMDA, GABA or AMPA induced currents were either applied by NMDA, GABA, AMPA either through perfusion fast-step (Warner Instruments). […]
Next, the inventor evaluated the selectivity profile for Npam02 on two other key ionotropic receptors of the central nervous system (CNS): α-amino-3-hydroxy-5-methyl-4-isoxazolepropionic acid receptor AMPAR, which are known to be a non-NMDA type ionotropic transmembrane receptor for glutamate that mediates fast synaptic transmission in the central nervous system (CNS) and GABA receptors which are the principal inhibitory ligand-gated ion channel receptor. […]

[1] = target: T1, GluN2A NMDARs in GluN2B-lacking neurons (Mus musculus, UniProt P35436+P35438); experiment: Whole-cell recordings in GluN2B-knockout cortical neurons; details: compared to NMDA control
T1 construct: endogenous in cells; host or cells: primary cortical neurons from GluN2B-knockout mouse embryos

[2] = target: T2, GluN1/GluN2A-containing NMDARs (Rattus norvegicus, UniProt P35439+Q00959); experiment: Ca2+ influx assay (Fluo-4) in primary cultured rat neurons
T2 construct: endogenous in cells; host or cells: primary rat cortical neurons, 12-14 days in culture
Experimental: Rat neurons isolated from the entire cortex were plated onto poly-d-lysine-coated 96-well plates. After 12-14 days in culture, the level of intracellular calcium was assayed using the Fluo-4 No Wash calcium assay kit according to the manufacturer's protocol (Thermo Fisher Scientific). In brief, the neuronal culture medium was removed and replaced with a calcium assay buffer (CAB) containing […], 20 mM HEPES, 2.5 mM probenacid, and Fluo4-NW dye mix (pH 7.4; Thermo Fisher Scientific). The cells were then incubated for 45 minutes at 37° C. for dye loading and then 15 minutes at 25° C. To isolate calcium signals mediated by NMDARs, NMDA was used as an agonist (10 μM), and 2 μM glycine were added. The antagonist […] was used to block the GluN1/GluN2A NMDARs. The calcium fluorescence measurement was performed at 25° C. after 60 seconds of recording with a FLEXStation II benchtop scanning fluorometer (Molecular Devices); then, the NMDAR agonist NMDA (10 μM)/glycine (2 μM) was added at 180 seconds. Fluorescence plate reading continued for a total of 30 mins with use of an excitation of 485 nm, an emission of 538 nm, and a cutoff of […]. The data were recorded using SoftMax Pro software (Molecular Devices). […]

T1 sequence (P35436 23-1464, other chains not shown): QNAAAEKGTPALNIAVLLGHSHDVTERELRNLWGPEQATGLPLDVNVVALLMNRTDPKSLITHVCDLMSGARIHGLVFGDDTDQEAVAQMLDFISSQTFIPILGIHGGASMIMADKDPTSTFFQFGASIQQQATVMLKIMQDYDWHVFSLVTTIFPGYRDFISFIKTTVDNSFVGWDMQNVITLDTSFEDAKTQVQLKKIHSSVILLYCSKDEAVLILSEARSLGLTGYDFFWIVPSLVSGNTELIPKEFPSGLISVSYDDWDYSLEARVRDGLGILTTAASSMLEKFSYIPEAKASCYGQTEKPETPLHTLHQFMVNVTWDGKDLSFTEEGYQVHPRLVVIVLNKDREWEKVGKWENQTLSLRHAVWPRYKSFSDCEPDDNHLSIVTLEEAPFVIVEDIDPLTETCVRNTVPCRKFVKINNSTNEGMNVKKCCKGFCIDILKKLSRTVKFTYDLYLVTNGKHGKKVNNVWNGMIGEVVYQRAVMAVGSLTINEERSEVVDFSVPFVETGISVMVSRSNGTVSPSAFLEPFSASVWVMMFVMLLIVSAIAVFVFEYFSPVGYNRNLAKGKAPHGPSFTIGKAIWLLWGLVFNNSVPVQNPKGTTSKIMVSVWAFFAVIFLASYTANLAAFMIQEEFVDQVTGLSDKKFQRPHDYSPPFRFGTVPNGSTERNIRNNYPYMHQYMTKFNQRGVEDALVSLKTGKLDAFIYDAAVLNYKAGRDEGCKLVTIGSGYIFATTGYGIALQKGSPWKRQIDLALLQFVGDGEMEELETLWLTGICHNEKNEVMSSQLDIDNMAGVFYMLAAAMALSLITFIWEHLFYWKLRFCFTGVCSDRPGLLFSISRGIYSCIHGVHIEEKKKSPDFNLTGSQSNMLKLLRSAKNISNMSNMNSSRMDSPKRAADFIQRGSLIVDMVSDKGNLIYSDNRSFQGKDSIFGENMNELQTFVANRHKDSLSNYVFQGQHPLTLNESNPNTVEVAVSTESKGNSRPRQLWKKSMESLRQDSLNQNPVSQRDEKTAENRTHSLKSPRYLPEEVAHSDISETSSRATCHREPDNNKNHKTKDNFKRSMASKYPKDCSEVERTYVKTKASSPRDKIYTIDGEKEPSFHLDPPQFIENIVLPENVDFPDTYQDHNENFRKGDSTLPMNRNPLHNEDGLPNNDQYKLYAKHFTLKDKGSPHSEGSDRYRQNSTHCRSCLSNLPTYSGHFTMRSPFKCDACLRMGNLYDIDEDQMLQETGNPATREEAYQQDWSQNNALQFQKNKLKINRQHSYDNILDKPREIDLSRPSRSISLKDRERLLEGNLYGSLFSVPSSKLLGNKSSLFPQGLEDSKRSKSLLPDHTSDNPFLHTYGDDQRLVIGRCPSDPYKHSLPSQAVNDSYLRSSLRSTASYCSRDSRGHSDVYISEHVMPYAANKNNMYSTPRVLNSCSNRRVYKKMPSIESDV
T2 sequence (Q00959 23-1464, other chains not shown): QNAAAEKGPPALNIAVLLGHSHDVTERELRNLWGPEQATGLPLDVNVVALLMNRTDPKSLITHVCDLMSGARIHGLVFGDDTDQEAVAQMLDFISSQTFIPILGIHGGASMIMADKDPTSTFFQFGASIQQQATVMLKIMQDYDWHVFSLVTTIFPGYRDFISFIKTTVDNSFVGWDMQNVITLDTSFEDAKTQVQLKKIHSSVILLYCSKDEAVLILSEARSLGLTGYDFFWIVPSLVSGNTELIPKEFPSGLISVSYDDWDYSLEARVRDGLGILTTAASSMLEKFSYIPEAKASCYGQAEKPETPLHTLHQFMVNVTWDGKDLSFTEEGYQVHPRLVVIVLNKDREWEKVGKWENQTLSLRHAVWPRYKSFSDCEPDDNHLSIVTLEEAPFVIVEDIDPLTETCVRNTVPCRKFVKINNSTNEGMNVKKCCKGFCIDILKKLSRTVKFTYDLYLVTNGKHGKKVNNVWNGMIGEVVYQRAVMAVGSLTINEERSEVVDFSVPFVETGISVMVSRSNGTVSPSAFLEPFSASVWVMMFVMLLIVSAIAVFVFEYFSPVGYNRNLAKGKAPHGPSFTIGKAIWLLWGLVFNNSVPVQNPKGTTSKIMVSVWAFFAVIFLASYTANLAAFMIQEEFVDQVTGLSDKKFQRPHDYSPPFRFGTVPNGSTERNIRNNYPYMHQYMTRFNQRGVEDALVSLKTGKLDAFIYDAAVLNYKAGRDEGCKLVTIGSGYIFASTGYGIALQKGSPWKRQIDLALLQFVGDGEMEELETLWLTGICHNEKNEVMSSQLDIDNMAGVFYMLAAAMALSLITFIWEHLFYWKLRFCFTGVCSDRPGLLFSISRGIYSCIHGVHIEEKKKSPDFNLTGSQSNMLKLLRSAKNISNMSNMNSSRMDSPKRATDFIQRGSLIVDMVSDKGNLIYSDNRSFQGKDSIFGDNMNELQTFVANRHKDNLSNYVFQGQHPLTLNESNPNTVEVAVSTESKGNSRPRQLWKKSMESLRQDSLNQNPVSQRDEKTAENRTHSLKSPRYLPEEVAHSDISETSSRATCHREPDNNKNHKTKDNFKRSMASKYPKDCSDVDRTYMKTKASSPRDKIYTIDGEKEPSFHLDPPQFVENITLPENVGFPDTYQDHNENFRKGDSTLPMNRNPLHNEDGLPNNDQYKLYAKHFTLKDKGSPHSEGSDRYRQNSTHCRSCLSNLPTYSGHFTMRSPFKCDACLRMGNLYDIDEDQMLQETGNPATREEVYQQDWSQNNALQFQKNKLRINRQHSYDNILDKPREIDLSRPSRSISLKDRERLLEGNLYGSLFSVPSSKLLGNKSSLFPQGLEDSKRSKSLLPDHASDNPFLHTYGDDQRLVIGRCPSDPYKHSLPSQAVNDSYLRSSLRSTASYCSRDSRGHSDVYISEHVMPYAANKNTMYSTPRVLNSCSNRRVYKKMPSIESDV

| SMILES | Effect on AMPAR mediated currents (AMPAR) | Positive modulation of NMDAR currents ([1]; 100 μM bath, NMDA 20 μM, glycine 2 μM) | Potentiation effect with co-applied ifenprodril (IF) ([1]; GluN2B-knockout neurons) | NMDAR current change with NVP-AAM007 (0.2 μM) and Npam02 ([1]; Npam02 100 μM) | Ca2+ influx in response to Npam43 with co-applied NVP-AAM0077 ([2]; GluN2A antagonist co-applied) | Ca2+ influx fluorescence signal ([2]; NMDA 10 μM, glycine 2 μM) |
| --- | --- | --- | --- | --- | --- | --- |
| COc1cccc(/C=N/NC(=O)c2ccccc2C)c1O [Npam02, (E)-N′-(2-hydroxy-3-methoxybenzylidene)-2-methylbenzohydrazide] | no observable effects | 44.72±4.29% | 42.22±4.03% | 88.87±3.45% |  |  |
| CCOc1cc(Cl)c(Cl)c(/C=N/NC(=O)c2ccccc2Br)c1O [Npam43, (E)-2-bromo-N′-(2,3-dichloro-5-ethoxy-6-hydroxybenzylidene)benzohydrazide] |  |  |  |  | marked reduction of Ca^2+ influx | increased the Ca^2+ influx fluorescence signal |
